According to ChEMBL document CHEMBL1909046, “DrugMatrix in vitro pharmacology data”:
pIC50, pKi: −log10 of the molar value.

Assays:
[1] = molecular target: T1, Type-2 angiotensin II receptor (Homo sapiens, UniProt P50052); format: cell-based; details: cho-k1; note: in other assays of this panel Not Active means under 50% inhibition at 10 µM
T1 sequence (P50052 whole entry): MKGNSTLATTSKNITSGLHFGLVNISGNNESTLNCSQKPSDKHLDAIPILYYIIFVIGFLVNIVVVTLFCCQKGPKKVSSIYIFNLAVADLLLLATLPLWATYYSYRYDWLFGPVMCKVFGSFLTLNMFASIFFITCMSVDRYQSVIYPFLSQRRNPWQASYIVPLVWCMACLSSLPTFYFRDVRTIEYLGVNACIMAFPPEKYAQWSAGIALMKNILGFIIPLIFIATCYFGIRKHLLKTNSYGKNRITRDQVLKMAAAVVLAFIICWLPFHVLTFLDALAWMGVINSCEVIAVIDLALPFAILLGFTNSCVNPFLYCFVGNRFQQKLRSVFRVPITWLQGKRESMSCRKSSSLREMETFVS

[2] = DRUGMATRIX: beta-Lactamase enzyme inhibition (substrate: Nitrocefin); parameters: species or system Bacillus cereus; details: Not Active = under 50% inhibition at 10 µM
Calcitonin receptor = molecular target: T2, Calcitonin receptor (Homo sapiens, UniProt P30988); format: cell membranes, Membrane; details: t47d; note: in other assays of this panel Not Active means under 50% inhibition at 10 µM
T2 sequence (P30988 whole entry): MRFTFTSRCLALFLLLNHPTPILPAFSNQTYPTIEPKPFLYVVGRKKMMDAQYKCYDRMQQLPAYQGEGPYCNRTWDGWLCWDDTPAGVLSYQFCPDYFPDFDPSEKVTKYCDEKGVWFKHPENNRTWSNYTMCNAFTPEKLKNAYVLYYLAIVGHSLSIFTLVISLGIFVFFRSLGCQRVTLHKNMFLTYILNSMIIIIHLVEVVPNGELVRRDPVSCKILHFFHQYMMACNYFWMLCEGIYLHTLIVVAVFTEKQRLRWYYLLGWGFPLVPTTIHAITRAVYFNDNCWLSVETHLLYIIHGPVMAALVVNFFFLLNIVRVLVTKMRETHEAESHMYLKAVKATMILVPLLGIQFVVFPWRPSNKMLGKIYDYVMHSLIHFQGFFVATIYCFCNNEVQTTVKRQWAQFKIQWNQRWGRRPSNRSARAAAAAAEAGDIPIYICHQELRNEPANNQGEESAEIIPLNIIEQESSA

[3] = molecular target: Vascular endothelial growth factor receptor 1 (Homo sapiens, UniProt P17948); format: cell-based; details: huvec; note: in other assays of this panel Not Active means under 50% inhibition at 10 µM
Sequence of Vascular endothelial growth factor receptor 1 (P17948 whole entry): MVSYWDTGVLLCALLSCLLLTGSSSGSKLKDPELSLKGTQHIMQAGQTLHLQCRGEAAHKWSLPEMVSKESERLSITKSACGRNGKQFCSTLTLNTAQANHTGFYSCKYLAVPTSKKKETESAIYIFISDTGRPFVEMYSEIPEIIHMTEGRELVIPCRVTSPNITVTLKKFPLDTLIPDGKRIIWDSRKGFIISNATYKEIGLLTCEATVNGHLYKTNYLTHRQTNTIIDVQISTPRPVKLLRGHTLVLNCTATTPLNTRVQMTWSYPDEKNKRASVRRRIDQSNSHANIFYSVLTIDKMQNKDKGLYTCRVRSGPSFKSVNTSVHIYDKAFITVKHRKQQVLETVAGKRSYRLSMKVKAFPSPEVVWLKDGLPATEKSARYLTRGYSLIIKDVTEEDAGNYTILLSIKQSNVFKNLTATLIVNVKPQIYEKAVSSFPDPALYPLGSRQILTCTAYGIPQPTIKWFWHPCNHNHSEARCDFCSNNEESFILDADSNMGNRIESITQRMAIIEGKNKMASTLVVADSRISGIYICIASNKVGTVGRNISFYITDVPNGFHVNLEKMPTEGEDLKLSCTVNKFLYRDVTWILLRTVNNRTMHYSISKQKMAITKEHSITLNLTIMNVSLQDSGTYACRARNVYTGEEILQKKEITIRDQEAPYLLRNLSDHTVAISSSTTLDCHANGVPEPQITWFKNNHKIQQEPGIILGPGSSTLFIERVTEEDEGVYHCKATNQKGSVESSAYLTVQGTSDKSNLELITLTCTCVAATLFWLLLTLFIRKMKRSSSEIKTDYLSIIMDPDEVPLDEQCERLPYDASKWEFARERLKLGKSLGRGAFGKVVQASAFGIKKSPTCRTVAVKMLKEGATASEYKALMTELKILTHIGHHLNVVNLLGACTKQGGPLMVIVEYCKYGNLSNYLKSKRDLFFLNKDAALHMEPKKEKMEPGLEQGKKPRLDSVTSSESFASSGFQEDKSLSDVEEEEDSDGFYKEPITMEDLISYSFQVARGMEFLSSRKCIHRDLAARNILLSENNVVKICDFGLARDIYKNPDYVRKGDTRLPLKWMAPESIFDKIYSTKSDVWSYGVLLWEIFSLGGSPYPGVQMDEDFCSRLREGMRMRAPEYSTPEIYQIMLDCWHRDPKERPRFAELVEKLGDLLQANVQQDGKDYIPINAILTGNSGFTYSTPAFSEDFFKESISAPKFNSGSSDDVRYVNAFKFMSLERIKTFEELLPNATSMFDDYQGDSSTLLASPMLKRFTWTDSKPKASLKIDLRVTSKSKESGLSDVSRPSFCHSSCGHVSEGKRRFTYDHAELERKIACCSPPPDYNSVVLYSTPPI

[4] = molecular target: C-C chemokine receptor type 2 (Homo sapiens, UniProt P41597); format: cell membranes, CHO-K1, Membrane; details: cho-k1; note: in other assays of this panel Not Active means under 50% inhibition at 10 µM
Sequence of C-C chemokine receptor type 2 (P41597 whole entry): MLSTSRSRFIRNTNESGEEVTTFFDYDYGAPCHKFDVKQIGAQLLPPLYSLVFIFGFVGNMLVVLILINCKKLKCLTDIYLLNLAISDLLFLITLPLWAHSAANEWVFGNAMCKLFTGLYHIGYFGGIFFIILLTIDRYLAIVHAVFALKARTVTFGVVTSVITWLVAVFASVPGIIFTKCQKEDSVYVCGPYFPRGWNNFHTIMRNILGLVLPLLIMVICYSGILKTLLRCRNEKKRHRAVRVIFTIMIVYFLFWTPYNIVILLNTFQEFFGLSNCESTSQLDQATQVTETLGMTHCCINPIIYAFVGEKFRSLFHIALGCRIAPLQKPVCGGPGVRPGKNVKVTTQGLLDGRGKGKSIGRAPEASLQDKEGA

D(4) dopamine receptor = molecular target: T3, D(4) dopamine receptor (Homo sapiens, UniProt P21917); test: DRUGMATRIX: Dopamine D4.2 radioligand binding (ligand: [3H] Spiperone); format: cell membranes, CHO-K1, Membrane; details: cho-k1; Not Active = under 50% inhibition at 10 µM
T3 sequence (P21917 whole entry): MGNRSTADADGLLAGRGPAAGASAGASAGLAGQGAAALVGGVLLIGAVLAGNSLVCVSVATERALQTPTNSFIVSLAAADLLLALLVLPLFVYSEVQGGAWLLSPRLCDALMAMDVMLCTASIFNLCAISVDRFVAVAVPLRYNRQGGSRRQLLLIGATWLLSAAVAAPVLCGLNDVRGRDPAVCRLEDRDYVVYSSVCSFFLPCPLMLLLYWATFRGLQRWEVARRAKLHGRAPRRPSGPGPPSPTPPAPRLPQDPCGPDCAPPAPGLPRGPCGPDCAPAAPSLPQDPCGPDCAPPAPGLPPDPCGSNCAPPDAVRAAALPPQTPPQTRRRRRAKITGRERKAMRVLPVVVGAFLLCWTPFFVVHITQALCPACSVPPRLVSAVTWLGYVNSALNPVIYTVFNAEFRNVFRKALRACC

[5] = molecular target: Sodium-dependent dopamine transporter (Homo sapiens, UniProt Q01959); test: DRUGMATRIX: Dopamine Transporter radioligand binding (ligand: [125I] RTI-55); format: cell membranes, CHO-K1, Membrane; details: Not Active = under 50% inhibition at 10 µM; for IC50 / Ki: cho-k1
Sequence of Sodium-dependent dopamine transporter (Q01959 whole entry): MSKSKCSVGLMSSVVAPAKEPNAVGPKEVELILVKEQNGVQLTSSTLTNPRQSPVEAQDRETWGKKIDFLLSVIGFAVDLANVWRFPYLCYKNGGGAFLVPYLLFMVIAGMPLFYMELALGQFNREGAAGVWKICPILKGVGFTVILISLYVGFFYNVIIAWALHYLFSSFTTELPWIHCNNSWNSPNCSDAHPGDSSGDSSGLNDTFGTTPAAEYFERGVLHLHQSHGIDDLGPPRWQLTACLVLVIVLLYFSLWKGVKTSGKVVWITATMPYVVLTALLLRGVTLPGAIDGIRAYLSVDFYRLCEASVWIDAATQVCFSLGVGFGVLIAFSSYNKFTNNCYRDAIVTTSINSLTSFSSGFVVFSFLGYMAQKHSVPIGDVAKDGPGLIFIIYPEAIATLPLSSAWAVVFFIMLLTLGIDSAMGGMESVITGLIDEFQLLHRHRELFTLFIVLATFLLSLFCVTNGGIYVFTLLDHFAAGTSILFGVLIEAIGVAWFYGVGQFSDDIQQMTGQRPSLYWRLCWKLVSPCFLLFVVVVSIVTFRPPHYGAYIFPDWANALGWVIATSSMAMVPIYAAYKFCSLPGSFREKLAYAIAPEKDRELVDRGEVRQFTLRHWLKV

[6] = DRUGMATRIX: GABAA, Muscimol, Central radioligand binding (ligand: [3H] Muscimol); format: cell membranes, Rattus norvegicus, Wistar, Brain, Membrane; details: Not Active = under 50% inhibition at 10 µM
[7] = DRUGMATRIX: Glutamate, AMPA radioligand binding (ligand: [3H] AMPA); format: cell membranes, Rattus norvegicus, Wistar, Cerebral cortex, Membrane; details: Not Active = under 50% inhibition at 10 µM
Cytochrome P450 2E1 = Cytochrome P450 2E1 (Homo sapiens, UniProt P05181); details: bti-tn-5b1-4; note: in other assays of this panel Not Active means under 50% inhibition at 10 µM
Sequence of Cytochrome P450 2E1 (P05181 whole entry): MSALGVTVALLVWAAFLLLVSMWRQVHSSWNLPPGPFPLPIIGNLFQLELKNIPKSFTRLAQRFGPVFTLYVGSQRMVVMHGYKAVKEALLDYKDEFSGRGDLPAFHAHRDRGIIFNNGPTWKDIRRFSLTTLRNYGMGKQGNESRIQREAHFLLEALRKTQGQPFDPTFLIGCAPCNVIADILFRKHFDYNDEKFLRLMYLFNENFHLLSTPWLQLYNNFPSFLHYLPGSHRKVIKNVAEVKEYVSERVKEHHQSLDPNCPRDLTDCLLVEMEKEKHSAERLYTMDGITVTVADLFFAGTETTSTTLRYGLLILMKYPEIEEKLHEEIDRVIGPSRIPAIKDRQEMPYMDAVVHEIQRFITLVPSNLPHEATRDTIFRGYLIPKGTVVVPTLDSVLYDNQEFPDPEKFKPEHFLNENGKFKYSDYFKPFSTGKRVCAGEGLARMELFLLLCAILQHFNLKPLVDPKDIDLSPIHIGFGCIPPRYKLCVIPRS

Molecule | IC50 [1] | IC50 [2] | Ki [2] | IC50 (Calcitonin receptor) | IC50 [3] | IC50 [4] | IC50 (D(4) dopamine receptor) | IC50 [5] | IC50 [6] | Ki [6] | IC50 [7] | Ki [7] | IC50 (Cytochrome P450 2E1) | Ki (Cytochrome P450 2E1) | other results
CN(C)[C@@H]1C(O)=C(C(N)=O)C(=O)[C@@]2(O)C(O)=C3C(=O)c4c(O)cccc4[C@@](C)(O)[C@H]3[C@H](O)[C@@H]12 [OXYTETRACYCLINE] | Not Active | Not Active | Not Active | Not Active | Not Active | Not Active | Not Active | Not Active | Not Active | Not Active | Not Active | Not Active | Not Active | Not Active | 
CC(C)(S)[C@@H](N)C(=O)O [PENICILLAMINE] | Not Active | Not Active | Not Active | Not Active | Not Active | Not Active | Not Active | Not Active | Not Active | Not Active | Not Active | Not Active | Not Active | Not Active | 
CC(=O)CCCCn1c(=O)c2c(ncn2C)n(C)c1=O [PENTOXIFYLLINE] | Not Active | Not Active | Not Active | Not Active | Not Active | Not Active | Not Active | Not Active | Not Active | Not Active | Not Active | Not Active | Not Active | Not Active | 
O=C1NC(=O)C(c2ccccc2)(c2ccccc2)N1 [PHENYTOIN] | Not Active | Not Active | Not Active | Not Active | Not Active | Not Active | Not Active | Not Active | Not Active | Not Active | Not Active | Not Active | Not Active | Not Active | 
CNC(=O)Oc1ccc2c(c1)[C@]1(C)CCN(C)[C@@H]1N2C [PHYSOSTIGMINE] | Not Active | Not Active | Not Active | Not Active | Not Active | Not Active | Not Active | Not Active | Not Active | Not Active | Not Active | Not Active | Not Active | Not Active | 
C=C(C)[C@@H]1[C@H]2OC(=O)[C@@H]1[C@]1(O)C[C@H]3O[C@]34C(=O)O[C@H]2[C@]14C [PICROTOXININ] | Not Active | Not Active | Not Active | Not Active | Not Active | Not Active | Not Active | Not Active | Not Active | Not Active | Not Active | Not Active | Not Active | Not Active | 
CN1C(C(=O)Nc2ccccn2)=C(O)c2ccccc2S1(=O)=O [PIROXICAM] | Not Active | Not Active | Not Active | Not Active | Not Active | Not Active | Not Active | Not Active | Not Active | Not Active | Not Active | Not Active | Not Active | Not Active | 
CCC1(c2ccccc2)C(=O)NCNC1=O [PRIMIDONE] | Not Active | Not Active | Not Active | Not Active | Not Active | Not Active | Not Active | Not Active | Not Active | Not Active | Not Active | Not Active | Not Active | Not Active | 
CCCc1cc(=O)[nH]c(=S)[nH]1 [PROPYLTHIOURACIL] | Not Active | Not Active | Not Active | Not Active | Not Active | Not Active | Not Active | Not Active | Not Active | Not Active | Not Active | Not Active | Not Active | Not Active | 
COc1ccc(CN(CCN(C)C)c2ccccn2)cc1 [PYRILAMINE] | Not Active | Not Active | Not Active | Not Active | Not Active | Not Active | Not Active |  | Not Active | Not Active | Not Active | Not Active | Not Active | Not Active | pIC50 ([5]; read-out: IC50): 6.06; pKi ([5]; read-out: Ki): 6.16
CARBOPLATIN | Not Active | Not Active | Not Active | Not Active | Not Active | Not Active | Not Active | Not Active | Not Active | Not Active | Not Active | Not Active | Not Active | Not Active | Ki [1]: Not Active; Ki (Calcitonin receptor): Not Active; Ki [3]: Not Active; Ki [4]: Not Active; Ki (D(4) dopamine receptor): Not Active; Ki [5]: Not Active
CISPLATIN | Not Active | Not Active | Not Active | Not Active | Not Active |  | Not Active | Not Active | Not Active | Not Active | Not Active | Not Active | Not Active | Not Active | Ki [1]: Not Active; Ki (Calcitonin receptor): Not Active; Ki [3]: Not Active; pIC50 ([4]; read-out: IC50): 4.74; pKi ([4]; read-out: Ki): 5.15; Ki (D(4) dopamine receptor): Not Active; Ki [5]: Not Active
